Assay results: ChEMBL document CHEMBL5331122, “Structure-Activity Relationship Study of Antimicrobial Peptide PE2 Delivered Novel Linear Derivatives with Potential of Eradicating Biofilms and Low Incidence of Drug Resistance” (J Med Chem, 2023)
Values after ≈ are worked out from the molar mass of the structure shown.

Key:
Escherichia coli = experiment: Antibacterial activity against Escherichia coli ATCC 25922 assessed as bacterial growth inhibition incubated for 18 hrs by broth microdilution method; type: functional
Klebsiella pneumoniae = experiment: Antibacterial activity against Klebsiella pneumoniae ATCC 700603 assessed as bacterial growth inhibition incubated for 18 hrs by broth microdilution method; type: functional
Pseudomonas aeruginosa = experiment: Antibacterial activity against Pseudomonas aeruginosa ATCC 27853 assessed as bacterial growth inhibition incubated for 18 hrs by broth microdilution method; type: functional
Staphylococcus aureus = experiment: Antibacterial activity against Staphylococcus aureus ATCC 25923 assessed as bacterial growth inhibition incubated for 18 hrs by broth microdilution method; type: functional
Bacillus subtilis = experiment: Antibacterial activity against Bacillus subtilis ATCC 23857 assessed as bacterial growth inhibition incubated for 18 hrs by broth microdilution method; type: functional
Enterococcus faecalis = experiment: Antibacterial activity against Enterococcus faecalis ATCC 29212 assessed as bacterial growth inhibition incubated for 18 hrs by broth microdilution method; type: functional
Erythrocyte = experiment: Hemolytic activity in mouse red blood cell assessed as hemolysis incubated for 1 hr; type: toxicity, cell-based; conditions: dose 4-256 µg/ml
[1] = Hemolytic activity in mouse red blood cells assessed as hemolysis at 256 microg/ml incubated for 1 hr relative to control; type: toxicity, cell-based, Erythrocyte; conditions: red blood cells (erythrocytes), at 256 µg/mL, read-out: Activity

| Structure (SMILES) | MIC (Escherichia coli) | MIC (Klebsiella pneumoniae) | MIC (Pseudomonas aeruginosa) | MIC (Staphylococcus aureus) | MIC (Bacillus subtilis) | MIC (Enterococcus faecalis) | HC10 (Erythrocyte) | hemolysis at 1 h, 256 µg/mL [1] |
| --- | --- | --- | --- | --- | --- | --- | --- | --- |
| CCCCCCCCC(=O)N[C@@H](CCN)C(=O)N[C@H](C(=O)N[C@@H](CCN)C(=O)N[C@H](Cc1ccccc1)C(=O)N[C@@H](CC(C)C)C(=O)N[C@@H](CCN)C(=O)N[C@@H](C(=O)N[C@@H](CC(C)C)C(=O)N[C@H](C(N)=O)[C@@H](C)O)C(C)C)[C@@H](C)CC | 4 µg/mL (≈ 3.49 µM) | 8 µg/mL (≈ 6.99 µM) | 8 µg/mL (≈ 6.99 µM) | 8 µg/mL (≈ 6.99 µM) | 4 µg/mL (≈ 3.49 µM) | 8 µg/mL (≈ 6.99 µM) | 64 µg/mL | – |
| CCCCCCCCCCC(=O)N[C@@H](CCN)C(=O)N[C@H](C(=O)N[C@@H](CCN)C(=O)N[C@H](Cc1ccccc1)C(=O)N[C@@H](CC(C)C)C(=O)N[C@@H](CCN)C(=O)N[C@@H](C(=O)N[C@@H](CC(C)C)C(=O)N[C@H](C(N)=O)[C@@H](C)O)C(C)C)[C@@H](C)CC | 4 µg/mL (≈ 3.41 µM) | 2 µg/mL (≈ 1.71 µM) | 2 µg/mL (≈ 1.71 µM) | 2 µg/mL (≈ 1.71 µM) | 2 µg/mL (≈ 1.71 µM) | 8 µg/mL (≈ 6.82 µM) | 16 µg/mL | – |
| C/C=C(/NC(=O)[C@H](CC(C)C)NC(=O)[C@H](NC(=O)[C@H](CCN)NC(=O)[C@H](CC(C)C)NC(=O)[C@@H](Cc1ccccc1)NC(=O)[C@H](CCN)NC(=O)[C@@H](NC(=O)[C@H](CCN)NC(=O)C[C@@H](O)CCC)[C@@H](C)CC)C(C)C)C(=O)O | 64 µg/mL (≈ 58.1 µM) | 128 µg/mL (≈ 116 µM) | 32 µg/mL (≈ 29.1 µM) | > 128 µg/mL | 32 µg/mL (≈ 29.1 µM) | > 128 µg/mL | 512 µg/mL | – |
| CCCCCCCCCC(=O)N[C@@H](CCN)C(=O)N[C@H](C(=O)N[C@@H](CCN)C(=O)N[C@H](Cc1ccccc1)C(=O)N[C@@H](CC(C)C)C(=O)N[C@@H](CCN)C(=O)N[C@@H](C(=O)N[C@@H](CC(C)C)C(=O)N[C@H](C(N)=O)[C@@H](C)O)C(C)C)[C@@H](C)CC | 4 µg/mL (≈ 3.45 µM) | 4 µg/mL (≈ 3.45 µM) | 4 µg/mL (≈ 3.45 µM) | 4 µg/mL (≈ 3.45 µM) | 4 µg/mL (≈ 3.45 µM) | 8 µg/mL (≈ 6.91 µM) | 32 µg/mL | – |
| CCCCCC(=O)N[C@@H](CCN)C(=O)N[C@H](C(=O)N[C@@H](CCN)C(=O)N[C@H](Cc1ccccc1)C(=O)N[C@@H](CC(C)C)C(=O)N[C@@H](CCN)C(=O)N[C@@H](C(=O)N[C@@H](CC(C)C)C(=O)N[C@@H](C)C(N)=O)C(C)C)[C@@H](C)CC | 32 µg/mL (≈ 29.8 µM) | 64 µg/mL (≈ 59.7 µM) | 4 µg/mL (≈ 3.73 µM) | 64 µg/mL (≈ 59.7 µM) | 8 µg/mL (≈ 7.46 µM) | > 128 µg/mL | 512 µg/mL | < 5% |
| CCCCCCC(=O)N[C@@H](CCN)C(=O)N[C@H](C(=O)N[C@@H](CCN)C(=O)N[C@H](Cc1ccccc1)C(=O)N[C@@H](CC(C)C)C(=O)N[C@@H](CCN)C(=O)N[C@@H](C(=O)N[C@@H](CC(C)C)C(=O)N[C@H](C(N)=O)[C@@H](C)O)C(C)C)[C@@H](C)CC | 4 µg/mL (≈ 3.58 µM) | 8 µg/mL (≈ 7.17 µM) | 16 µg/mL (≈ 14.3 µM) | 16 µg/mL (≈ 14.3 µM) | 4 µg/mL (≈ 3.58 µM) | 64 µg/mL (≈ 57.3 µM) | 256 µg/mL | – |
| CCCCCC(=O)N[C@@H](CCN)C(=O)N[C@H](C(=O)N[C@@H](CCN)C(=O)N[C@H](Cc1ccccc1)C(=O)N[C@@H](CC(C)C)C(=O)N[C@H]1CCNC(=O)[C@H]([C@@H](C)O)NC(=O)[C@H](CC(C)C)NC(=O)[C@@H](C(C)C)NC1=O)[C@@H](C)CC | 16 µg/mL (≈ 14.7 µM) | 128 µg/mL (≈ 118 µM) | 128 µg/mL (≈ 118 µM) | 32 µg/mL (≈ 29.5 µM) | 4 µg/mL (≈ 3.69 µM) | > 128 µg/mL | 512 µg/mL | < 5% |
| CC[C@H](C)[C@H](NC(=O)[C@@H](N)CCN)C(=O)N[C@@H](CCN)C(=O)N[C@H](Cc1ccccc1)C(=O)N[C@@H](CC(C)C)C(=O)N[C@@H](CCN)C(=O)N[C@@H](C(=O)N[C@@H](CC(C)C)C(=O)N[C@H](C(N)=O)[C@@H](C)O)C(C)C | 128 µg/mL (≈ 127 µM) | > 128 µg/mL | 32 µg/mL (≈ 31.9 µM) | > 128 µg/mL | 32 µg/mL (≈ 31.9 µM) | > 128 µg/mL | 512 µg/mL | – |
| CCCCCCCCCCCC(=O)N[C@@H](CCN)C(=O)N[C@H](C(=O)N[C@@H](CCN)C(=O)N[C@H](Cc1ccccc1)C(=O)N[C@@H](CC(C)C)C(=O)N[C@@H](CCN)C(=O)N[C@@H](C(=O)N[C@@H](CC(C)C)C(=O)N[C@H](C(N)=O)[C@@H](C)O)C(C)C)[C@@H](C)CC | 4 µg/mL (≈ 3.37 µM) | 8 µg/mL (≈ 6.74 µM) | 8 µg/mL (≈ 6.74 µM) | 16 µg/mL (≈ 13.5 µM) | 8 µg/mL (≈ 6.74 µM) | 4 µg/mL (≈ 3.37 µM) | 8 µg/mL | – |
| CCCCCC(=O)N[C@@H](CCN)C(=O)N[C@H](C(=O)N[C@@H](CCN)C(=O)N[C@H](Cc1ccccc1)C(=O)N[C@@H](CC(C)C)C(=O)N[C@@H](CCN)C(=O)N[C@@H](C(=O)N[C@@H](CC(C)C)C(=O)N[C@@H](Cc1ccc(O)cc1)C(N)=O)C(C)C)[C@@H](C)CC | 4 µg/mL (≈ 3.43 µM) | 8 µg/mL (≈ 6.87 µM) | 16 µg/mL (≈ 13.7 µM) | 16 µg/mL (≈ 13.7 µM) | 4 µg/mL (≈ 3.43 µM) | 64 µg/mL (≈ 55 µM) | 512 µg/mL | < 5% |
| CCCCCCCCCCCCCC(=O)N[C@@H](CCN)C(=O)N[C@H](C(=O)N[C@@H](CCN)C(=O)N[C@H](Cc1ccccc1)C(=O)N[C@@H](CC(C)C)C(=O)N[C@@H](CCN)C(=O)N[C@@H](C(=O)N[C@@H](CC(C)C)C(=O)N[C@H](C(N)=O)[C@@H](C)O)C(C)C)[C@@H](C)CC | 128 µg/mL (≈ 105 µM) | > 128 µg/mL | 32 µg/mL (≈ 26.3 µM) | 32 µg/mL (≈ 26.3 µM) | 16 µg/mL (≈ 13.2 µM) | 16 µg/mL (≈ 13.2 µM) | 32 µg/mL | – |
| CCCCCC(=O)N[C@H]1CCNC(=O)[C@H]([C@@H](C)O)NC(=O)[C@H](CC(C)C)NC(=O)[C@@H](C(C)C)NC(=O)[C@H](CCN)NC(=O)[C@H](CC(C)C)NC(=O)[C@@H](Cc2ccccc2)NC(=O)[C@H](CCN)NC(=O)[C@H]([C@@H](C)CC)NC1=O | 32 µg/mL (≈ 29.5 µM) | 64 µg/mL (≈ 59 µM) | > 128 µg/mL | > 128 µg/mL | 128 µg/mL (≈ 118 µM) | > 128 µg/mL | 512 µg/mL | < 5% |
| CN[C@H](CC(C)C)C(=O)N[C@H]1C(=O)N[C@@H](CC(N)=O)C(=O)N[C@H]2C(=O)N[C@H]3C(=O)N[C@H](C(=O)N[C@H](C(=O)O)c4cc(O)cc(O)c4-c4cc3ccc4O)[C@H](O)c3ccc(c(Cl)c3)Oc3cc2cc(c3O[C@@H]2O[C@H](CO)[C@@H](O)[C@H](O)[C@H]2O[C@H]2C[C@](C)(N)[C@H](O)[C@H](C)O2)Oc2ccc(cc2Cl)[C@H]1O [VANCOMYCIN] | 128 µg/mL (≈ 88.3 µM) | > 128 µg/mL | > 128 µg/mL | – | < 1 µg/mL | – | – | – |
| CCCCCC(=O)N[C@@H](CCN)C(=O)N[C@H](C(=O)N[C@H]1CCNC(=O)[C@H]([C@@H](C)O)NC(=O)[C@H](CC(C)C)NC(=O)[C@@H](C(C)C)NC(=O)[C@H](CCN)NC(=O)[C@H](CC(C)C)NC(=O)[C@@H](Cc2ccccc2)NC1=O)[C@@H](C)CC | 16 µg/mL (≈ 14.7 µM) | 64 µg/mL (≈ 59 µM) | 64 µg/mL (≈ 59 µM) | 32 µg/mL (≈ 29.5 µM) | 4 µg/mL (≈ 3.69 µM) | 64 µg/mL (≈ 59 µM) | 512 µg/mL | < 5% |
| CCCCCCCC(=O)N[C@@H](CCN)C(=O)N[C@H](C(=O)N[C@@H](CCN)C(=O)N[C@H](Cc1ccccc1)C(=O)N[C@@H](CC(C)C)C(=O)N[C@@H](CCN)C(=O)N[C@@H](C(=O)N[C@@H](CC(C)C)C(=O)N[C@H](C(N)=O)[C@@H](C)O)C(C)C)[C@@H](C)CC | 4 µg/mL (≈ 3.54 µM) | 8 µg/mL (≈ 7.08 µM) | 8 µg/mL (≈ 7.08 µM) | 8 µg/mL (≈ 7.08 µM) | 4 µg/mL (≈ 3.54 µM) | 16 µg/mL (≈ 14.2 µM) | 128 µg/mL | – |
| NC[C@H]1O[C@H](O[C@H]2[C@H](O)[C@@H](O[C@H]3O[C@H](CO)[C@@H](O)[C@H](N)[C@H]3O)[C@H](N)C[C@@H]2N)[C@H](O)[C@@H](O)[C@@H]1O [KANAMYCIN] | 4 µg/mL (≈ 8.26 µM) | 32 µg/mL (≈ 66 µM) | > 128 µg/mL | < 1 µg/mL | < 1 µg/mL | 16 µg/mL (≈ 33 µM) | – | – |
| CCCCCCCCCCCCC(=O)N[C@@H](CCN)C(=O)N[C@H](C(=O)N[C@@H](CCN)C(=O)N[C@H](Cc1ccccc1)C(=O)N[C@@H](CC(C)C)C(=O)N[C@@H](CCN)C(=O)N[C@@H](C(=O)N[C@@H](CC(C)C)C(=O)N[C@H](C(N)=O)[C@@H](C)O)C(C)C)[C@@H](C)CC | 8 µg/mL (≈ 6.66 µM) | 16 µg/mL (≈ 13.3 µM) | 16 µg/mL (≈ 13.3 µM) | 32 µg/mL (≈ 26.7 µM) | 16 µg/mL (≈ 13.3 µM) | 8 µg/mL (≈ 6.66 µM) | 8 µg/mL | – |
